Data reported in patent publication US7388002B2, “Nucleosides, preparation thereof and use as inhibitors of RNA viral polymerases” (BioCryst Pharmaceuticals, Inc., priority 2001, dated 2008).

System: stably HCV RNA-replicating cell line, AVA5
Experiment: Antiviral Activity (HCV Replicon Assay)
Assay type: cell-based
Settings: intracellular HCV RNA levels (blot hybridization, normalized to B-actin RNA) in AVA5 cells (Huh7-derived), compound once daily for three days, read 24 hours after last dose
Description: HCV NS5B Polymerase Assay
Antiviral activity of the test compounds is assessed (Okuse et al., Antiviral Res. 2005, 65, 23-34) in the stably HCV RNA-replicating cell line, AVA5, derived by transfection of the human hepatoblastoma cell line, Huh7 (Blight et al., Sci. 2000, 290, 1972). Compounds are added to dividing cultures once daily for three days. Media is changed with each addition of compound. Cultures generally start the assay at 30-50% confluence and reach confluence during the last day of treatment. Intracellular HCV RNA levels and cytotoxicity are assessed 24 hours after the last dose of compound.
Triplicate cultures for HCV RNA levels (on 48-well and 96-well plates) and cytotoxicity (on 96-well plates) are used. A total of six untreated control cultures, and triplicate cultures treated with α-interferon and ribavirin serve as positive antiviral and toxicity controls.
Intracellular HCV RNA levels are measured using a conventional blot hybridization method in which HCV RNA levels are normalized to the levels of B-actin RNA in each individual culture (Okuse et al., Antivir. Res. 2005, 65, 23-34). Cytotoxicity is measured using a neutral red dye uptake assay (Korba and Gerin, Antivir. Res. 1992, 19, 55). HCV RNA levels in the treated cultures are expressed as a percentage of the mean levels of RNA detected in untreated cultures.

SMILES | % Inhibition at 10 μM [%]
C=C(CCOCP(=O)(OCC(=O)OC(C)(C)C)OCC(=O)OC(C)(C)C)n1cnc2c(N)ncnc21 [Compound 34h, (±)-9-[(1-Methylene)(3-(di-tert-butyloxycarbonylmethylphosphono)methoxy)propyl]-adenine] | 35
CC(C)(C)OC(=O)COP(=O)(COCCC(CN)n1cnc2c(N)ncnc21)OCC(=O)OC(C)(C)C (racemic) [Compound 34d, (±)-9-[(1-Aminomethyl)(3-(di-tert-butyloxycarbonylmethylphosphono)methoxy)propyl]-adenine] | 60
CC(O)C(COCP(=O)(OCC(=O)OC(C)(C)C)OCC(=O)OC(C)(C)C)n1cnc2c(-c3ccccc3)ncnc21 (racemic) [Compound 79a, (±)-9-[(1-Hydroxyethyl)(3-(di-tert-butyloxycarbonylmethylphosphono)methoxy)ethyl]-6-phenylpurine] | 48
CC(O)CC(COCP(=O)(OCOC(=O)C(C)(C)C)OCOC(=O)C(C)(C)C)n1cnc2c(N)ncnc21 (racemic) [Compound 56f, (±)-9-[1-[(Di-tert-butylcarbonyloxymethylphosphonomethoxy)methyl][(3-hydroxy)butyl]adenine] | 62
CC(C)(C)OC(=O)COP(=O)(COCCC(CO)n1cnc2c(NC3CCCC3)ncnc21)OCC(=O)OC(C)(C)C (racemic) [Compound 73k, (±)-9-[(1-Hydroxymethyl)(3-(di-tert-butyloxycarbonylmethylphosphono)methoxy)propyl]-6-cyclopentylaminopurine] | 36
CC(C)(C)OC(=O)COP(=O)(COCCC(CO)n1cnc2c(-c3ccccc3)ncnc21)OCC(=O)OC(C)(C)C (racemic) [Compound 76a, (±)-9-[(1-Hydroxymethyl)(3-(di-tert-butyloxycarbonylmethylphosphono)methoxy)propyl]-6-phenylpurine] | 35
CC(C)(C)OC(=O)COP(=O)(COCCC(CO)n1cnc2c(-c3ccsc3)ncnc21)OCC(=O)OC(C)(C)C (racemic) [Compound 76b, (±)-9-[(1-Hydroxymethyl)(3-(di-tert-butyloxycarbonylmethylphosphono)methoxy)propyl]-6-(3-thiophenyl)purine] | 18
CC(C)(C)OC(=O)COP(=O)(COCCC(CCO)n1cnc2c(N)ncnc21)OCC(=O)OC(C)(C)C (racemic) [Compound 34e, (±)-9-[(1-(2-Hydroxy)ethyl)(3-(di-tert-butyloxycarbonylmethylphosphono)methoxy)propyl]-adenine] | 41
